Experimental data taken from patent publication US20260038709A1 (priority 2020, published 2026).
Read-outs that look alike come from different tables or passages of the source.

Key:
Boiling point = type: physicochemical
Vapor pressure = type: physicochemical; settings: 20° C.
[1] = in vivo; cited from earlier work
[2] = Explosion limits of CF3OCFCF2 / CO2 / O2 (triangular diagram)
Description: In this case, the straight line AB may be a straight line connecting point A and point B, the straight line BC may be a straight line connecting point B and point C, the straight line CA may be a straight line connecting point C and point A, and in the point A, (x, y, z) may be (50, 0, 50), in the point B, (x, y, z) may be (5.1, 0, 94.9), and in the point C, (x, y, z) may be (8.2, 80, 11.8). Unlike the case above, when (x, y, z) is present in the triangle ABC (explosion triangle) composed of the points A, B, and C, there may be an explosion hazard due to flammability.
In FIG. 7, the explosion limits indicate the explosion limit line, and is a line connecting the explosion limit points (filled square points). On the other hand, no ignition (hollow rectangle points) indicates a non-ignition point.
In addition, point A in the triangular diagram of FIG. 7 represents upper flammability limit (UFL), and when point A is connected to point C, which is an end point on the explosion limit line, a straight line AC, which is an expected explosion limit (expected line), is formed. […] Meanwhile, the ICR line on the triangle diagram is tangent to the explosion triangle passing through 100% of O2, and the MXC value is 9.3% (C3F6O in CO2).

[3] = Lower flammability limit (LFL) calculation, KS B ISO 10156: 2017 combustible gas standard; settings: mixed gas of CF3OCFCF2 and CO2, by mixing ratio of CF3OCFCF2; calculation results
Description: Meanwhile, insulating gases used in electric devices that insulate electricity or extinguish arc are not supposed to belong to the category of combustible gases.
The calculation results of the lower flammability limit (LFL) according to the mixing ratio of the mixed gas of CF3OCFCF2 and CO2 are shown in the following table. In this case, the lower flammability limit is a concentration range in which flame propagation may take place when a combustible gas is mixed with air and ignited, expressed in volume concentration (vol %), and refers to the lowest value in this volume concentration.

[4] = Reactivity test with electrodes during dielectric strength test; settings: room temperature, 1 atm, insulation test chamber
Description: In this case, the reactivity test was to determine a reaction with electrodes upon testing dielectric strength for each mixing ratio of the insulating gases in an enclosed space where no external gas was not allowed to enter (insulation test chamber), at R.T. (room temperature), and at a standard atmospheric pressure of 1 atm. In this case, materials of a sphere electrode are CuCr and Wcu, and materials of a plane electrode are CuCr and SUS.

[5] = Acute inhalation toxicity (LC50 4 h) of mixed gas based on KS B ISO 10298: 2012; settings: mixed gas of CF3OCFCF2 and CO2, mixing ratio mol %
Method: The mixed gas of the present invention may have a GWP of 1 or less, 0.9 or less, or 0.85 or less. In addition, the mixed gas of the present invention may have a GWP of 0.29 to 1, 0.29 to 0.9, or 0.29 to 0.85. […] In this case, a method for calculating GWP was based on Regulation (EU) NO 517/2014, and LC50, which represents lethal concentration 50% upon inhalation for 4 hours, was based one KS B ISO 10298: 2012.

[6] = Acute inhalation toxicity (LC50 4 h); type: in vivo; settings: inhalation for 4 hours, pure gas

Row | SMILES | Boiling point (Boiling point) [°C] | Vapor pressure (Vapor pressure) [psia] | Acute inhalation toxicity (LC50 4 h) [1] | Ignition ([2]; C3F6O 8.6, CO2 82.5, O2 8.9 mol %) | Ignition ([2]; C3F6O 8.8, CO2 85.0, O2 6.2 mol %) | MXC value ([2]; C3F6O in CO2) [%] | Upper flammability limit (UFL), point A, C3F6O ([2]; CO2 0, O2 50 mol %) [mol %] | Explosion limit (LEL), C3F6O ([2]; CO2 0.0, O2 94.9 mol %) [mol %] | Explosion limit, C3F6O ([2]; CO2 30.0, O2 64.3 mol %) [mol %] | Explosion limit, C3F6O ([2]; CO2 50.0, O2 43.4 mol %) [mol %] | Explosion limit, C3F6O ([2]; CO2 60.0, O2 33.0 mol %) [mol %] | Explosion limit, C3F6O ([2]; CO2 70.0, O2 22.4 mol %) [mol %] | Explosion limit, C3F6O ([2]; CO2 80.0, O2 11.8 mol %, point of tangency of ICR line) [mol %] | Lower flammability limit (LFL) [3] [vol %] | Reaction with electrodes [4] | LC50 4 h [5] | Acute inhalation toxicity (LC50 4 h) [6]
1 | N#CC(F)(C(F)(F)F)C(F)(F)F [(CF3)2CFCN, heptafluoroisobutyronitrile] | −4.7 | 36.7 | 10,000-15,000 ppmv |  |  |  |  |  |  |  |  |  |  |  |  |  | 
2 | FC(F)=C(F)OC(F)(F)F [CF3OCFCF2, trifluoromethyl trifluorovinyl ether] | −29 | 70.3 |  | No ignition confirmed at 8.6% C3F6O | No ignition confirmed at 8.8% C3F6O | 9.3 | 50 | 5.1 | 5.7 | 6.6 | 7.0 | 7.6 | 8.2 | 7.5 | reacted with electrodes at atmospheric pressure to form a carbon film | 15,000 ppmv | 10,000-15,000 ppmv
3 | FS(F)(F)(F)(F)F [SF6] | −63.7 | 334 |  |  |  |  |  |  |  |  |  |  |  |  |  |  | 100,000~ ppmv
